# “And” between values parts separate entries of the source, which are not always exact repeats. Identical values can stand only once. Like-named read-outs stand apart in the source and are kept apart here.
# Test system: DIO C57Bl6 mice
# Conditions: for Ing. Fat / Liver / RP Fat / Total Fat / avg B.W. / Epid. Fat / Fat % BW: day 32; for Blood glucose: day 32, fasted three hours; for weekly food consumption, % of vehicle: day 9-29; for Weight Change from day 1: Day 32; for Average BW: IP-GTT day 24; for Blood Glucose 120 / Blood Glucose 15 min / Blood Glucose 30 min / Blood Glucose 60 min / Blood Glucose 90 min / Blood Glucose Fasting: IP-GTT day 24, ± SEM; for CHOLESTEROL / HDL CHOLESTEROL / HDL/LDL ratio / LDL / TRIGLYCERIDE: blood day 32, ± SEM
# Procedure: C57Bl6 male mice (N=6) fifteen weeks old with an average of weight of 42 g were ad libitum fed TD.06414 a high fat diet composed of 60% Kcal from fat (Harlan diet). […] Animals were weighed every other day. Food consumption was measured weekly. […] Each animal was weighed and a baseline fasted glucose measurement collected. Each animal was given a 1 gram per kilogram dose of dextrose as a 25% solution by intraperitoneal injection.
substance,measurement,setting,value
poly[HPMA-co-MA-GFLG-N-(trans-4-aminocyclohexyl)carbamoylfumagillol] [Compound 16],Ing. Fat,0.6 mg/kg q4d sc,2.51 g
same,Liver,0.6 mg/kg q4d sc,1.75 g
same,RP Fat,0.6 mg/kg q4d sc,1.26 g
same,Total Fat,0.6 mg/kg q4d sc,6.01 g
same,avg B.W.,0.6 mg/kg q4d sc,43.32 g
same,Blood glucose,0.6 mg/kg q4d sc,265 mg/dL
same,"weekly food consumption, % of vehicle",2 mg/kg q4d,90%
same,Weekly food consumption Day 1-8,2 mg/kg q4d sc,14.3 g
same,Weekly food consumption Day 9-15,2 mg/kg q4d sc,22.2 g
same,Weekly food consumption Day 15-22,2 mg/kg q4d sc,19.9 g
same,Weekly food consumption Day 22-29,2 mg/kg q4d sc,18.5 g
same,"Group BW ± SEM, Day 32",2.0 mg/kg q4d sc,38.8 ± 0.70 g
same,Weight Change from day 1,2.0 mg/kg q4d sc,−7.4%
same,Average BW,2.0 mg/kg q4d sc,36.8 g
same,Blood Glucose 120,2.0 mg/kg q4d sc,166 ± 6.4 mg/dL
same,Blood Glucose 15 min,2.0 mg/kg q4d sc,388 ± 20.7 mg/dL
same,Blood Glucose 30 min,2.0 mg/kg q4d sc,361 ± 24.3 mg/dL
same,Blood Glucose 60 min,2.0 mg/kg q4d sc,327 ± 26.7 mg/dL
same,Blood Glucose 90 min,2.0 mg/kg q4d sc,244 ± 24.0 mg/dL
same,Blood Glucose Fasting,2.0 mg/kg q4d sc,198 ± 11.6 mg/dL
same,CHOLESTEROL,2 mg/kg q4d sc,149 ± 4.7 mg/dL
same,HDL CHOLESTEROL,2 mg/kg q4d sc,92 ± 2.6 mg/dL
same,HDL/LDL ratio,2 mg/kg q4d sc,9.0 ± 0.4
same,LDL,2 mg/kg q4d sc,10 ± 0.5 mg/dL
same,TRIGLYCERIDE,2 mg/kg q4d sc,95 ± 8.7 mg/dL
same,Epid. Fat,2.0 mg/kg q4d sc,1.72 g
same,Fat % BW,2.0 mg/kg q4d sc,11% and 11.4%
same,Ing. Fat,2.0 mg/kg q4d sc,1.81 g
same,Liver,2.0 mg/kg q4d sc,1.44 g
same,RP Fat,2.0 mg/kg q4d sc,0.89 g
same,Total Fat,2.0 mg/kg q4d sc,4.42 g
same,avg B.W.,2.0 mg/kg q4d sc,38.82 g
same,Blood glucose,2.0 mg/kg q4d sc,259 mg/dL
same,"weekly food consumption, % of vehicle",6 mg/kg q4d,75%
same,Weekly food consumption Day 1-8,6 mg/kg q4d sc,9.0 g
same,Weekly food consumption Day 9-15,6 mg/kg q4d sc,17.5 g
same,Weekly food consumption Day 15-22,6 mg/kg q4d sc,17.8 g
same,Weekly food consumption Day 22-29,6 mg/kg q4d sc,16.1 g
same,"Group BW ± SEM, Day 32",6.0 mg/kg q4d sc,33.6 ± 0.72 g
same,Weight Change from day 1,6.0 mg/kg q4d sc,−20.0%
same,Average BW,6.0 mg/kg q4d sc,33.0 g
same,Blood Glucose 120,6.0 mg/kg q4d sc,177 ± 9.3 mg/dL
same,Blood Glucose 15 min,6.0 mg/kg q4d sc,473 ± 39.1 mg/dL
same,Blood Glucose 30 min,6.0 mg/kg q4d sc,355 ± 23.8 mg/dL
same,Blood Glucose 60 min,6.0 mg/kg q4d sc,324 ± 19.1 mg/dL
same,Blood Glucose 90 min,6.0 mg/kg q4d sc,240 ± 6.7 mg/dL
same,Blood Glucose Fasting,6.0 mg/kg q4d sc,185 ± 6.5 mg/dL
same,CHOLESTEROL,6 mg/kg q4d sc,109 ± 2.6 mg/dL
same,HDL CHOLESTEROL,6 mg/kg q4d sc,72 ± 1.3 mg/dL
same,HDL/LDL ratio,6 mg/kg q4d sc,9.0 ± 0.5
same,LDL,6 mg/kg q4d sc,8 ± 0.5 mg/dL
same,TRIGLYCERIDE,6 mg/kg q4d sc,81 ± 13.6 mg/dL
same,Epid. Fat,6.0 mg/kg q4d sc,1.11 g
same,Fat % BW,6.0 mg/kg q4d sc,10% and 9.7%
same,Ing. Fat,6.0 mg/kg q4d sc,1.54 g
same,Liver,6.0 mg/kg q4d sc,1.30 g
same,RP Fat,6.0 mg/kg q4d sc,0.60 g
same,Total Fat,6.0 mg/kg q4d sc,3.25 g
same,avg B.W.,6.0 mg/kg q4d sc,33.60 g
same,Blood glucose,6.0 mg/kg q4d sc,227 mg/dL

# — patent US11304944B2, “MetAP2 inhibitors and methods of treating obesity” (SynDevRx, Inc., priority 2013, dated 2022)
